Assay results: patent US20230165252A1, “ACTIVE COMPOUND COMBINATIONS” (Bayer Aktiengesellschaft, priority 2020, published 2023)
Like-named read-outs stand apart in the source and are kept apart here.

How the values were obtained:
Type in all cases: cell-based
Botrytis cinerea = experiment: in vitro-Test with Botrytis cinerea (microtiter growth inhibition)
Summary of the method: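 Steps: dry the compound (methanol with alkylaryl-polyglycol-ether) in each well; add potato dextrose liquid medium containing fungal spores or mycelium; record 620 nm extinction; incubate at 20° C. and 85% relative humidity; re-measure photometrically after 3-5 days. Efficacy in % against untreated wells.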

[1] = system: Colletotrichum lindemuthianum; experiment: in vitro-Test with Colletotrichum lindemuthianum (microtiter growth inhibition)
Experimental: (§1) The degree of efficacy expressed in % is denoted: 0% means an efficacy, which corresponds to that of the control, while an efficacy of 100% means that no disease is observed.
(§2) If the actual fungicidal activity exceeds the calculated value, then the activity of the combination is super-additive, i.e. a synergistic effect exists. In this case, the efficacy, which was actually observed, must be greater than the value for the expected efficacy (E), that was calculated from the abovementioned formula.
(§3) Example: In Vitro-Test with Fungal Microorganisms
(§4) Wells of 96-well microtiter plates are filled with 10 μl of a preparation of test compound or compound combination in methanol+emulsifier alkylaryl-polyglycol-ether. Thereafter, the solvent is evaporated in a hood. At the next step, 100 μl of liquid potato dextrose medium is given into each well, that has been amended with an appropriate concentration of spores or mycelium suspension of the test fungus.
(§5) With the aid of a photometer, the extinction in all wells is measured at the wavelength of 620 nm.
(§6) The microtiter plates are incubated at 20° C. and 85% relative humidity. The inhibition of growth is determined again photometrically 3-5 days after the application. Efficacy is calculated in relation to the untreated control, 0% efficacy means fungal growth as high as in untreated control while 100% efficacy means no fungal growth is measured.

Parastagonospora nodorum = experiment: in vitro-Test with Parastagonospora nodorum (microtiter growth inhibition)
Experimental: as §1, §2, §3, §4, §5, §6

[2] = Colletotrichum lindemuthianum, read-out: Efficacy %
[3] = Parastagonospora nodorum, read-out: Efficacy %

**Q.** What does the source list for `OC(Cc1ccccc1Cl)(Cn1nc[nH]c1=S)C1(Cl)CC1` (stereo not drawn) [(1.018) prothioconazole]?
**A.** inhibition of growth at 0.04 ppm (Botrytis cinerea; Botrytis cinerea, single active at 0.04 ppm, read-out: Efficacy %): 63%; inhibition of growth at 0.2 ppm (Botrytis cinerea; Botrytis cinerea, single active at 0.2 ppm, read-out: Efficacy %): 100%; inhibition of growth at 0.2 ppm ([1]; Colletotrichum lindemuthianum, applied alone at 0.2 ppm, read-out: Efficacy %): 73%; inhibition of growth at 0.008 ppm (Parastagonospora nodorum; Parastagonospora nodorum, compound alone, 0.008 ppm, read-out: Efficacy %): 28%; inhibition of growth at 0.04 ppm (Parastagonospora nodorum; Parastagonospora nodorum, compound alone, 0.04 ppm, read-out: Efficacy %): 91%; inhibition of growth at 0.2 ppm (Parastagonospora nodorum; Parastagonospora nodorum, compound alone, 0.2 ppm, read-out: Efficacy %): 99%; inhibition of growth at 1 ppm (Parastagonospora nodorum; Parastagonospora nodorum, compound alone, 1.0 ppm, read-out: Efficacy %): 100%; Efficacy % (Parastagonospora nodorum; compound alone, 0.2 ppm): 99%

**Q.** Which results are given for `N#Cc1ccccc1NC(=O)c1snc(Cl)c1Cl` [(6.002) isotianil]?
**A.** Efficacy % (Botrytis cinerea; single active at 4 ppm): 0%; Efficacy % (Botrytis cinerea; single active at 20 ppm): 0%; Efficacy % (Botrytis cinerea; single active at 100 ppm): 0%; Efficacy % ([1]; applied alone at 0.8 ppm): 7%; Efficacy % ([1]; applied alone at 4 ppm): 19%; Efficacy % ([1]; applied alone at 20 ppm): 0%; Efficacy % ([1]; applied alone at 100 ppm): 17%

**Q.** `N#Cc1c[nH]cc1-c1cccc2c1OC(F)(F)O2` [(13.001) fludioxonil] was tested. Which inhibition of growth at 0.04 ppm [1, 2] did it give?
**A.** The inhibition of growth at 0.04 ppm was 8%.

**Q.** And the inhibition of growth at 0.2 ppm [1, 2]?
**A.** Its inhibition of growth at 0.2 ppm is 68%.

**Q.** And the inhibition of growth at 1 ppm [1, 2]?
**A.** The inhibition of growth at 1 ppm was 81%.

**Q.** What about the inhibition of growth at 5 ppm [1, 2] of the same compound?
**A.** The inhibition of growth at 5 ppm was 44%.

**Q.** And the Efficacy % ([1]; applied alone at 0.2 ppm)?
**A.** The Efficacy % was 60%.

**Q.** What about the inhibition of growth at 1 ppm (Parastagonospora nodorum; [3]) of the same compound?
**A.** The inhibition of growth at 1 ppm was 34%.

**Q.** What about the inhibition of growth at 5 ppm (Parastagonospora nodorum; [3]) of the same compound?
**A.** Its inhibition of growth at 5 ppm is 75%.

**Q.** And the Efficacy % (Parastagonospora nodorum; compound alone, 0.04 ppm)?
**A.** Its Efficacy % is 0%.

**Q.** What about the Efficacy % (Parastagonospora nodorum; compound alone, 0.2 ppm) of the same compound?
**A.** Its Efficacy % is 0%.

**Q.** How did the Efficacy % ([1]; applied alone at 4 ppm) turn out when `CCO[PH](=O)[O-].CCO[PH](=O)[O-].CCO[PH](=O)[O-].[Al+3]` [(15.012) fosetylaluminium] was run?
**A.** Its Efficacy % is 0%.

**Q.** What about the Efficacy % ([1]; applied alone at 20 ppm) of the same compound?
**A.** The Efficacy % was 22%.

**Q.** What about the Efficacy % ([1]; applied alone at 100 ppm) of the same compound?
**A.** Its Efficacy % is 70%.
